{"source": "patent US20240270740A1", "about": "“INHIBITORS OF CYCLIC GMP-AMP SYNTHASE AND USES THEREOF” (Ventus Therapeutics U.S., Inc., priority 2022, published 2024)"}
{"target": "hcGAS (Homo sapiens, UniProt Q8N884)", "sequence (Q8N884 whole entry)": "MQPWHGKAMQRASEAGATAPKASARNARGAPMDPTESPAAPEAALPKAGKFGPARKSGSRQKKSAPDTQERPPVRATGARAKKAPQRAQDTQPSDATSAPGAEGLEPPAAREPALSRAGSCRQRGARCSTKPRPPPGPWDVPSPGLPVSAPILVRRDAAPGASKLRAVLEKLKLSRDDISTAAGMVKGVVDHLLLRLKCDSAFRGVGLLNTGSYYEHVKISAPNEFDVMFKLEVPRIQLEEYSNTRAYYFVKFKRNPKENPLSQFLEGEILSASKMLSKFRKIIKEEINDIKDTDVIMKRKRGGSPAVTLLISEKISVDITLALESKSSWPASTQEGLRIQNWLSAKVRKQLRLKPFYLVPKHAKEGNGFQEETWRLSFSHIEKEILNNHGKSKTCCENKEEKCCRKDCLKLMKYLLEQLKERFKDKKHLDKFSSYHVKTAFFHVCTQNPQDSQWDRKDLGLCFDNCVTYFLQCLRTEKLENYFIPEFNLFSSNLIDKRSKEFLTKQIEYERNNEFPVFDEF", "assay": "hcGAS LCMS assay (direct measurement of cGAMP production)", "type": "biochemical", "conditions": "0.5 nM hcGAS, 100 μM ATP, 100 μM GTP, 25 nM dsDNA, 4 h incubation", "procedure": "cGAS catalyzes the cyclization of ATP and GTP to produce cGAMP, which is the activating ligand of STING. Human cGAS (hcGAS) inhibition can thus be quantified by measuring how much cGAMP is formed either indirectly, by monitoring ATP-depletion as in the hcGAS Kinase-Glo assay (as described below), or directly, such as using the hcGAS LCMS assay (as described below).\nCompounds were tested for their h-cGAS inhibition activity using direct measurement of cGAMP production by LC/MS. Briefly, compounds were incubated with enzyme and substrates for 4 hours (see Table C), before the reaction was stopped with 3 volumes of 70/30 Acetonitrile/H2O mix containing 0.15 mM cGAMP-^13C10^5N5 as internal standard and mixed for […]. After centrifugation (3700 rpm, 10 min, 10° Celsius), […] of each reaction was collected and mixed to equal volume of Acetonitrile. Samples were then analyzed on Qexective (Column: XBridge BEH Amide Column, 130 Å, 3.5 μm, 3 mm×50 mm, Mobile phase A: 10 mM Ammonium acetate in 95/5% H2O/Acetonitrile (0.5% DMSO), Mobile phase B: Acetonitrile (0.5% DMSO).\nThe results of the assay, expressed as IC50 values, are reported in Table D with the following designations: A represents an IC50 value<0.005 μM; B represents an IC50 value≥0.005 μM and <0.02 μM, C represents an IC50 value≥0.02 μM and <0.06 μM; D represents an IC50 value≥0.06 and <0.2 μM; E represents an IC50 value≥0.2.", "units": {"IC50": "nM"}}
{"compound": "COc1c(N[C@H]2CCCC[C@@H]2OC)cc(C(=O)Nc2nnc(-n3nccc3C)s2)oc1=O", "note": "[Compound 70, 3-methoxy-4-(((1S,2S)-2-methoxycyclohexyl)amino)-N-(5-(5-methyl-1H-pyrazol-1-yl)-1,3,4-thiadiazol-2-yl)-2-oxo-2H-pyran-6-carboxamide]", "IC50": "5 to 20"}
{"compound": "COc1c(N[C@H]2CC[C@H]2O)cc(C(=O)Nc2nnc(-c3c(Cl)ccn3C)s2)oc1=O", "note": "(single isomer, unassigned) [Compound 53]", "IC50": "< 5"}
{"compound": "COc1c(NCCO[C@@H]2CCOC2)cc(C(=O)Nc2nnc(-n3nccc3C)s2)oc1=O", "note": "[Compound 169, 5-methoxy-N-[5-(5-methylpyrazol-1-yl)-1,3,4-thiadiazol-2-yl]-6-oxo-4-({2-[(3R)-oxolan-3-yloxy]ethyl}amino)pyran-2-carboxamide]", "IC50": "≥ 200"}
{"compound": "COc1c(N[C@@H]2CC[C@@H]2OC)cc(C(=O)Nc2nnc(-c3c(Cl)ccn3C)s2)oc1=O", "note": "(single isomer, unassigned) [Compound 132*]", "IC50": "5 to 20"}
{"compound": "CC[C@@H](COC)Nc1cc(C(=O)Nc2nnc(-n3nccc3C)s2)oc(=O)c1OC", "note": "(single isomer, unassigned) [192*]", "IC50": "5 to 20"}
{"compound": "COc1c(N2C[C@H](OC)CC2=O)cc(C(=O)Nc2nnc(-n3nccc3C)s2)oc1=O", "note": "[Compound 154, (R)-3-methoxy-4-(4-methoxy-2-oxopyrrolidin-1-yl)-N-(5-(5-methyl-1H-pyrazol-1-yl)-1,3,4-thiadiazol-2-yl)-2-oxo-2H-pyran-6-carboxamide]", "IC50": "20 to 60"}
{"compound": "COc1c(NC23CC(O)(C2)C3)cc(C(=O)Nc2nnc(-n3nccc3C)s2)oc1=O", "note": "[Compound 126, 4-((3-hydroxybicyclo[1.1.1]pentan-1-yl)amino)-3-methoxy-N-(5-(5-methyl-1H-pyrazol-1-yl)-1,3,4-thiadiazol-2-yl)-2-oxo-2H-pyran-6-carboxamide]", "IC50": "5 to 20"}
{"compound": "COCC1(Nc2cc(C(=O)Nc3nnc(-n4nccc4C)s3)oc(=O)c2OC)CCC1", "note": "[Compound 196]", "IC50": "5 to 20"}
{"compound": "COc1c(N2CC[C@@H](OC)C2=O)cc(C(=O)Nc2nnc(-n3nccc3C)s2)oc1=O", "note": "[Compound 150, (R)-3-methoxy-4-(3-methoxy-2-oxopyrrolidin-1-yl)-N-(5-(5-methyl-1H-pyrazol-1-yl)-1,3,4-thiadiazol-2-yl)-2-oxo-2H-pyran-6-carboxamide]", "IC50": "5 to 20"}
{"compound": "COc1c(NC2CCCC2(C)O)cc(C(=O)Nc2nnc(-n3nccc3C)s2)oc1=O", "note": "(racemic) [Rac-167, 4-((2-hydroxy-2-methylcyclopentyl)amino)-3-methoxy-N-(5-(5-methyl-1H-pyrazol-1-yl)-1,3,4-thiadiazol-2-yl)-2-oxo-2H-pyran-6-carboxamide]", "IC50": "< 5"}
{"compound": "COC[C@@H](C)Nc1cc(C(=O)Nc2nnc(-n3nccc3CO)s2)oc(=O)c1OC", "note": "[Compound 142, (R)—N-(5-(5-(hydroxymethyl)-1H-pyrazol-1-yl)-1,3,4-thiadiazol-2-yl)-3-methoxy-4-((1-methoxypropan-2-yl)amino)-2-oxo-2H-pyran-6-carboxamide]", "IC50": "20 to 60"}
{"compound": "COc1c(N[C@@H]2COC[C@H]2OC)cc(C(=O)Nc2nnc(-n3nccc3C)s2)oc1=O", "note": "[Compound 102, 3-methoxy-4-(((3R,4S)-4-methoxytetrahydrofuran-3-yl)amino)-N-(5-(5-methyl-1H-pyrazol-1-yl)-1,3,4-thiadiazol-2-yl)-2-oxo-2H-pyran-6-carboxamide]", "IC50": "5 to 20"}
{"compound": "COc1c(N[C@H]2CCC[C@H]2OC)cc(C(=O)Nc2nnc(-c3c(Cl)ccn3C)s2)oc1=O", "note": "(single isomer, unassigned) [47*]", "IC50": "< 5"}
{"compound": "COc1c(N[C@@H]2CCC[C@@H]2O)cc(C(=O)Nc2nnc(-c3c(Cl)ccn3C)s2)oc1=O", "note": "[Compound 197, N-(5-(3-chloro-1-methyl-1H-pyrrol-2-yl)-1,3,4-thiadiazol-2-yl)-4-(((1R,2S)-2-hydroxycyclopentyl)amino)-3-methoxy-2-oxo-2H-pyran-6-carboxamide]", "IC50": "5 to 20"}
{"compound": "COCCOc1c(N[C@@H]2CCC[C@@H]2O)cc(C(=O)Nc2nnc(-c3c(Cl)ccn3C)s2)oc1=O", "note": "[Compound 86, N-(5-(3-chloro-1-methyl-1H-pyrrol-2-yl)-1,3,4-thiadiazol-2-yl)-4-(((1R,2S)-2-hydroxycyclopentyl)amino)-3-(2-methoxyethoxy)-2-oxo-2H-pyran-6-carboxamide]", "IC50": "< 5"}
{"compound": "COC[C@@H](C1CC1)N1CCOc2c1cc(C(=O)Nc1nnc(-n3nccc3C)s1)oc2=O", "note": "[Compound 225, (R)-1-(1-cyclopropyl-2-methoxyethyl)-N-(5-(5-methyl-1H-pyrazol-1-yl)-1,3,4-thiadiazol-2-yl)-5-oxo-1,2,3,5-tetrahydropyrano[3,4-b][1,4]oxazine-7-carboxamide]", "IC50": "< 5"}
{"compound": "COC[C@H](Nc1cc(C(=O)Nc2nnc(-n3nccc3C)s2)oc(=O)c1OC)C(C)C", "note": "[Compound 78, (R)-3-methoxy-4-((1-methoxy-3-methylbutan-2-yl)amino)-N-(5-(5-methyl-1H-pyrazol-1-yl)-1,3,4-thiadiazol-2-yl)-2-oxo-2H-pyran-6-carboxamide]", "IC50": "< 5"}
{"compound": "COc1c(NC[C@H](C)OC)cc(C(=O)Nc2nnc(-c3c(Cl)ccn3C)s2)oc1=O", "note": "[Compound 193, (S)-N-(5-(3-chloro-1-methyl-1H-pyrrol-2-yl)-1,3,4-thiadiazol-2-yl)-3-methoxy-4-((2-methoxypropyl)amino)-2-oxo-2H-pyran-6-carboxamide]", "IC50": "< 5"}
{"compound": "COC[C@H]1CCC[C@H]1Nc1cc(C(=O)Nc2nnc(-n3nccc3C)s2)oc(=O)c1OC", "note": "(single isomer, unassigned) [Compound 80*]", "IC50": "≥ 200"}
{"compound": "COC[C@@H](Cc1ccccc1)Nc1cc(C(=O)Nc2nnc(-n3nccc3C)s2)oc(=O)c1OC", "note": "[Compound 170, (R)-3-methoxy-4-((1-methoxy-3-phenylpropan-2-yl)amino)-N-(5-(5-methyl-1H-pyrazol-1-yl)-1,3,4-thiadiazol-2-yl)-2-oxo-2H-pyran-6-carboxamide]", "IC50": "5 to 20"}
{"compound": "COc1c(NCCOC(F)F)cc(C(=O)Nc2nnc(-n3nccc3C)s2)oc1=O", "note": "[Compound 208, 4-((2-(difluoromethoxy)ethyl)amino)-3-methoxy-N-(5-(5-methyl-1H-pyrazol-1-yl)-1,3,4-thiadiazol-2-yl)-2-oxo-2H-pyran-6-carboxamide]", "IC50": "5 to 20"}
{"compound": "COc1c(NCCOCC(F)F)cc(C(=O)Nc2nnc(-n3nccc3C)s2)oc1=O", "note": "[Compound 17, 4-((2-(2,2-difluoroethoxy)ethyl)amino)-3-methoxy-N-(5-(5-methyl-1H-pyrazol-1-yl)-1,3,4-thiadiazol-2-yl)-2-oxo-2H-pyran-6-carboxamide]", "IC50": "20 to 60"}
{"compound": "COc1c(N2CCCCC2=O)cc(C(=O)Nc2nnc(-n3nccc3C)s2)oc1=O", "note": "[Compound 96]", "IC50": "< 5"}
{"compound": "COc1c(N[C@H](C)[C@@H](C)OC)cc(C(=O)Nc2nnc(-n3nccc3C)s2)oc1=O", "note": "[Compound 161, 5-methoxy-4-{[(2R,3R)-3-methoxybutan-2-yl]amino}-N-[5-(5-methylpyrazol-1-yl)-1,3,4-thiadiazol-2-yl]-6-oxopyran-2-carboxamide]", "IC50": "< 5"}
{"compound": "COc1c(N[C@H]2CCN(C)C2=O)cc(C(=O)Nc2nnc(-n3nccc3C)s2)oc1=O", "note": "(single isomer, unassigned) [71*]", "IC50": "5 to 20"}
{"compound": "COc1c(N[C@@H]2COC[C@@H]2OC)cc(C(=O)Nc2nnc(-n3nccc3C)s2)oc1=O", "note": "[Compound 162, 5-methoxy-4-{[(3R,4R)-4-methoxyoxolan-3-yl]amino}-N-[5-(5-methylpyrazol-1-yl)-1,3,4-thiadiazol-2-yl]-6-oxopyran-2-carboxamide]", "IC50": "5 to 20"}
{"compound": "COCCNc1cc(C(=O)Nc2nnc(-c3c(C#N)csc3C)s2)oc(=O)c1OC", "note": "[Compound 140, N-(5-(4-cyano-2-methylthiophen-3-yl)-1,3,4-thiadiazol-2-yl)-3-methoxy-4-((2-methoxyethyl)amino)-2-oxo-2H-pyran-6-carboxamide]", "IC50": "60 to 200"}
{"compound": "COc1c(N[C@@H]2CCCCC[C@@H]2O)cc(C(=O)Nc2nnc(-n3nccc3C)s2)oc1=O", "note": "(racemic) [Rac-26, 4-(((cis)-2-hydroxycycloheptyl)amino)-3-methoxy-N-(5-(5-methyl-1H-pyrazol-1-yl)-1,3,4-thiadiazol-2-yl)-2-oxo-2H-pyran-6-carboxamide]", "IC50": "< 5"}
{"compound": "COC[C@@H](c1ccccc1)N1CCOc2c1cc(C(=O)Nc1nnc(-n3nccc3C)s1)oc2=O", "note": "[Compound 227, (R)-1-(2-methoxy-1-phenylethyl)-N-(5-(5-methyl-1H-pyrazol-1-yl)-1,3,4-thiadiazol-2-yl)-5-oxo-1,2,3,5-tetrahydropyrano[3,4-b][1,4]oxazine-7-carboxamide]", "IC50": "< 5"}
{"compound": "COC[C@H]1CC[C@H](COC)N1c1cc(C(=O)Nc2nnc(-n3nccc3C)s2)oc(=O)c1OC", "note": "(racemic) [Rac-209, 4-((trans)-2,5-bis(methoxymethyl)pyrrolidin-1-yl)-3-methoxy-N-(5-(5-methyl-1H-pyrazol-1-yl)-1,3,4-thiadiazol-2-yl)-2-oxo-2H-pyran-6-carboxamide]", "IC50": "5 to 20"}
{"compound": "COc1c(N2CCC[C@H]2CC#N)cc(C(=O)Nc2nnc(-n3nccc3C)s2)oc1=O", "note": "[Compound 175, (S)-4-(2-(cyanomethyl)pyrrolidin-1-yl)-3-methoxy-N-(5-(5-methyl-1H-pyrazol-1-yl)-1,3,4-thiadiazol-2-yl)-2-oxo-2H-pyran-6-carboxamide]", "IC50": "5 to 20"}
